Measurements taken from patent US20230339878A1, “SLC26A3 INHIBITORS AND USE THEREOF” (THE REGENTS OF THE UNIVERSITY OF CALIFORNIA, priority 2018, published 2023).
“Also recorded” adds a separate entry of the source.

Tests used:
murine slc26a3 = target: T1, murine slc26a3 (Mus musculus, UniProt Q9WVC8); experiment: slc26a3-mediated Cl-/I- exchange, YFP fluorescence quenching in FRT-YFP-slc26a3 cells; assay type: cell-based
T1 construct: host or cells: Fischer rat thyroid (FRT) cells expressing YFP, clonal line FRT-YFP-slc26a3
T1 sequence (Q9WVC8 1-757): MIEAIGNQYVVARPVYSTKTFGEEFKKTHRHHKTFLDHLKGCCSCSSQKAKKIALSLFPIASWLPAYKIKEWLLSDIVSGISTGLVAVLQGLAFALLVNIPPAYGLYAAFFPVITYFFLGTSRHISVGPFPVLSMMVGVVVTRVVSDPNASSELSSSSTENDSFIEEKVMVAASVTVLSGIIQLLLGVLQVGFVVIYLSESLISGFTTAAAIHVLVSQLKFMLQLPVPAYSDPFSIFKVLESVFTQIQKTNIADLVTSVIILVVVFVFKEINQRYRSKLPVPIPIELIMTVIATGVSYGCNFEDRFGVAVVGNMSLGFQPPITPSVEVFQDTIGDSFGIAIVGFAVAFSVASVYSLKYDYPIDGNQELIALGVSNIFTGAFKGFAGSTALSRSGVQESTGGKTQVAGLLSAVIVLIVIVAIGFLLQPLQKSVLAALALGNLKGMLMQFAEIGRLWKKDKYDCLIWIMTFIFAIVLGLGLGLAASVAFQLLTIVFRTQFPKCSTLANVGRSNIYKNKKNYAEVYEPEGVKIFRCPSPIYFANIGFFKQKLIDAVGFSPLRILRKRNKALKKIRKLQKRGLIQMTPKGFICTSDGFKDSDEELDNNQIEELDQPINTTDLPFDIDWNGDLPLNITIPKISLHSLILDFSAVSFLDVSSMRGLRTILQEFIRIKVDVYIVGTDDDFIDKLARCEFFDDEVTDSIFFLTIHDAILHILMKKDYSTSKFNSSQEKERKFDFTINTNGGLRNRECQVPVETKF

[1] = test system: mouse distal colonic closed loops; experiment: Closed distal colonic loop fluid absorption in mice; assay type: in vivo; settings: 10 µM intraluminal, 60 min
Protocol: Female CD1 mice (age 8-10 weeks) were given free access to Pedialyte (per liter: Na^+ 45 mEq, Cl^- 35 mEq, K^+ 20 mEq, dextrose 25 g; Abbott, Abbot Park, IL) but not solid food for 48 h before experiments. Mice were treated with 500 µL mineral oil once a day rectally (last dose 12 h before surgeries) during this period to evacuate the colon. Closed intestinal loops were isolated as described. Mice were anesthetized with isoflurane and body temperature was maintained during surgery at 36-38° C. using a heating pad. A small abdominal incision was made to expose the distal colon, and one closed distal colonic loop (length 1.5-2 cm) was isolated with sutures in each mouse. Loops were injected with 100 µL phosphate-buffered saline (PBS, pH: 7.4, in mM: 137 NaCl, 2.7 KCl, 8 Na2HPO4, 1.8 KH2PO4, 1 CaCl2, 0.5 MgCl2) without and with 10 µM Compound A1 and/or 10 µM tenapanor (MedChemExpress, Monmouth Junction, NJ). The abdominal incision was closed with sutures, and mice were allowed to recover from anesthesia. Colonic loops were removed at 0 and 60 min (in separate mice) and loop length and weight were measured to quantify fluid absorption. Luminal fluid was emptied with a syringe and pH was measured immediately using AB15 pH Meter (Thermo Fisher Scientific, South San Francisco, CA). In separate studies, mid-jejunal loops (length 2-3 cm, 3-4 loops per mouse) were isolated as described above, injected with 100 µL PBS without or with 10 µM Compound A1 and/or 10 µM tenapanor, and excised at 0 and 30 min to measure loop length and weight.
Closed intestinal loop studies in mice were done to study effects of Compound A1 on fluid absorption. […] Changes in luminal pH were also determined as a semi-quantitative measure of slc26a3-facilitated HCO3^- secretion / C1^- absorption, with slc26a3 inhibition predicted to reduce luminal fluid alkalinization. For these experiments, a phosphate-buffered solution (PBS) without HCO3^- / CO2 was used to avoid confounding effects of luminal carbonic anhydrases. […] Administration of the NHE3 (Na^+/H^+ exchanger 3) inhibitor tenapanor had no effect on weight/length ratio or luminal pH in distal colonic loops.

Cc1c(CC(=O)O)c(=O)oc2c(C)c(OCc3cccc(Br)c3)ccc12 [Compound A1]
t½ for inhibition (murine slc26a3; 1 µM, incubation for different times prior to Cl-/I- exchange): ~ 30 s
IC50 (murine slc26a3; summary over three anion exchange modes, read-out: IC50 for slc26a3-mediated Cl- exchange with HCO3-, I- and SCN-): ~200 nM
loop weight/length ratio (fluid absorption), distal colonic loops [1]: completely prevented the reduction in loop weight/length ratio; also recorded: blocked fluid absorption in closed colonic loops; also recorded: inhibits intestinal fluid absorption in mouse distal colon
luminal pH, distal colonic loops [1]: reduced alkalinization of luminal fluid
